Experimental data: US4478849A, “Secondary amines, their preparation and use in pharmaceutical compositions” (Beecham Group Limited, priority 1978, dated 1984)

Key:
[1] = tested on: genetically obese mice; assay: carcass lipid of genetically obese mice after daily oral dosing for 28 days (anti-obesity); format: in vivo, mouse (genetically obese); settings: for g - lipid per mouse, Treated: daily for 28 days; for anti-obesity activity (in words): general statement, no dose given
Protocol: (i) The compounds and a comparison compound (salbutamol) were dosed daily in water or carboxymethylcellulose suspension to genetically obese mice by oral gavage for 28 days. At the end of that time the carcass composition was determined.

[2] = tested on: blood glucose; assay: hypoglycaemic activity: reduction in area under blood glucose curve after glucose load in fasted mice; format: in vivo, female CFLP mice; settings: for inhibition in vivo at 5 mg/kg / inhibition in vivo at 20 mg/kg: Mus musculus, po, 2 h, 30 min before glucose load 1 g/kg sc, 2 hour period, versus control mice; for inhibition in vivo at 5 mg/kg: 5 mg/kg po; for anti-hyperglycaemic activity (in words): general statement, no dose given; for inhibition in vivo at 20 mg/kg: 20 mg/kg po
Protocol: Female CFLP mice, weighing approximately 25 g, were fasted for 24 hours prior to the study. The compounds under study were dosed orally (20 mg and 5 mg/kg) to each of 8 mice. 30 minutes later a blood sample ([…]) was obtained from the tail for the analysis of blood glucose. Immediately after taking this blood sample, each mouse was given a glucose load (1 g/kg body weight sub-cutaneously). Blood samples were then obtained from each mouse at 30 minute intervals for 120 minutes.
Compounds that produced a significant (P<0.05) reduction of blood glucose, compared with control mice given water, at any time interval were considered active. The area under the blood glucose curve over the 2 hour period after giving the glucose load was calculated for each compound and compared with the value for control animals. Thus a compound would give a 100% reduction in the area under the blood glucose curve if the blood glucose was maintained at the same level as in untreated fasted animals. Reduction in the glucose curve of more than 100% indicate that a compound, in spite of being given a glucose load, maintained blood glucose levels below that found in control fasted mice.

[3] = 9 mg/kg po, control 18.9 ± 0.66
[4] = 10 mg/kg po, control 18.3 ± 0.6 (Ex. 7), 16.5 ± 0.7 (Ex. 16, 21)

| Structure (SMILES) | anti-obesity activity (in words) [1] | inhibition in vivo at 5 mg/kg [2] [%] | anti-hyperglycaemic activity (in words) [2] | also measured |
| --- | --- | --- | --- | --- |
| COC(=O)c1ccc(CC(C)NCC(O)c2ccc(O)c(CO)c2)cc1C (centres unmarked) [Example 14, N-[2-(4-Carbomethoxy-3-methylphenyl)-1-methylethyl]-2-hydroxy-2-(4-hydroxy-3-hydroxymethylphenyl)ethanamine] | particularly worthy of mention in view of their anti-obesity activity | – | – | g - lipid per mouse, Treated ([1]; 10.5 mg/kg po, control 17.0 ± 0.67): 14.3 ± 0.61 g |
| COC(=O)c1ccc(C[C@@H](C)NCC(O)c2ccc(O)c(CO)c2)cc1 (stereo partly drawn) [Example 35, N-(1-(R)-2-[4-Carbomethoxyphenyl]-1-methylethyl)-2-hydroxy-2-(4-hydroxy-3-hydroxymethylphenyl)ethanamine] | particularly worthy of mention in view of their anti-obesity activity | – | – | – |
| COC(=O)c1ccc(CC(C)NCC(O)c2ccc(O)c(CS(C)(=O)=O)c2)cc1 (centres unmarked) [Example 39, N-(2-[4-Carbomethoxyphenyl]-1-methylethyl)-2-(4-hydroxy-3-methylsulphonylmethylphenyl)-2-hydroxyethanamine] | – | 83 | particularly worthy of mention in view of their anti-hyperglycaemic activity | – |
| COC(=O)c1ccc(CC(C)(C)NCC(O)c2ccc(O)c(CO)c2)cc1 (centres unmarked) [Example 31, N-(2-[4-Carbomethoxyphenyl]-1,1-dimethylethyl)-2-hydroxy-2-(4-hydroxy-3-hydroxymethylphenyl) ethanamine] | – | 139 | particularly worthy of mention in view of their anti-hyperglycaemic activity | – |
| COC(=O)c1ccc(CCNCC(O)c2ccccc2)cc1 (centres unmarked) [Example 25, N-(2-[4-Carbomethoxyphenyl]ethyl)-2-hydroxy-2-phenylethanamine] | – | 179 | particularly worthy of mention in view of their anti-hyperglycaemic activity | – |
| COC(=O)c1ccc(CC(C)NCC(O)c2ccc(O)c(N)c2)cc1 (centres unmarked) [Example 34] | – | – | – | inhibition in vivo at 20 mg/kg [2]: 61% |
| COC(=O)c1ccc(CC(C)(C)NCC(O)c2ccccc2)cc1 (centres unmarked) [Example 26, N-(2-[4-Carbomethoxyphenyl]-1,1-dimethylethyl)-2-hydroxy-2-phenylethanamine] | particularly worthy of mention in view of their anti-obesity activity | – | – | g - lipid per mouse, Treated [1, 3]: 16.4 ± 1.2 g |
| COC(=O)c1ccc(CC(C)NCC(O)c2ccc(O)c(CO)c2)c(F)c1 (centres unmarked) [Example 9, N-[2-(4-Carbomethoxy-2-fluorophenyl)-1-methylethyl]-2-hydroxy-2-(4-hydroxy-3-hydroxymethylphenyl) ethanamine] | – | 47 | – | – |
| COC(=O)c1ccc(CCC(C)NCC(O)c2ccc(O)c(CO)c2)cc1 (centres unmarked) [Example 7] | particularly worthy of mention in view of their anti-obesity activity | 110 | particularly worthy of mention in view of their anti-hyperglycaemic activity | g - lipid per mouse, Treated [1, 4]: 14.3 ± 0.4 g |
| CC(Cc1ccc(C(=O)OC(C)C)cc1)NCC(O)c1ccc(O)c(CO)c1 (centres unmarked) [Example 13, N-[2-(4-Carboisopropoxyphenyl)-1-methylethyl]-2-hydroxy-2-(4-hydroxy-3-hydroxymethylphenyl)ethanamine] | particularly worthy of mention in view of their anti-obesity activity | – | – | – |
| COC(=O)c1ccc(OCC(C)NCC(O)c2ccc(O)c(CO)c2)cc1 (centres unmarked) [Example 8, N-[2-(4-Carbomethoxyphenoxy)-1-methylethyl]-2-hydroxy-2-(4-hydroxy-3-hydroxymethylphenyl)ethanamine] | – | – | – | g - lipid per mouse, Treated ([1]; 21 mg/kg po, control 21.9 ± 0.5): 19.6 ± 0.4 g |
| CC(C)(C)NCC(O)c1ccc(O)c(CO)c1 (centres unmarked) [Salbutamol, reference compound] | – | – | – | g - lipid per mouse, Treated ([1]; 25 mg/kg po, control 23.0 ± 0.3): 23.1 ± 0.6 g |
| CCOC(=O)c1ccc(CC(C)NCC(O)c2ccc(O)c(CO)c2)cc1 (centres unmarked) [Example 16, N-[2-(4-Carboethoxyphenyl)-1-methylethyl]-2-hydroxy-2-(4-hydroxy-3-hydroxymethylphenyl) ethanamine] | particularly worthy of mention in view of their anti-obesity activity | – | – | g - lipid per mouse, Treated [1, 4]: 12.9 ± 0.8 g |
| COC(=O)c1ccc(CC(C)NCC(O)c2ccc(O)cc2Cl)cc1 (centres unmarked) [Example 33, N-(2-[4-Carbomethoxyphenyl]-1-methylethyl)-2-(2-chloro-4-hydroxyphenyl)-2-hydroxyethanamine] | – | 88 | particularly worthy of mention in view of their anti-hyperglycaemic activity | – |
| COC(=O)c1ccc(CC(C)NCC(O)c2ccc(O)c(NC(C)=O)c2)cc1 (centres unmarked) [Example 38, N-(2-[4-Carbomethoxyphenyl]-1-methylethyl)-2-(3-acetamido-4-hydroxyphenyl)-2-hydroxyethanamine] | – | 59 | – | – |
| COC(=O)c1ccc(C(C)NCC(O)c2ccc(O)c(CO)c2)cc1 (centres unmarked) [Example 18] | – | – | – | inhibition in vivo at 20 mg/kg [2]: 25% |
| COC(=O)c1ccc(CCCC(C)NCC(O)c2ccc(O)c(CO)c2)cc1 (centres unmarked) [Example 17] | particularly worthy of mention in view of their anti-obesity activity | 84 | particularly worthy of mention in view of their anti-hyperglycaemic activity | g - lipid per mouse, Treated ([1]; 11 mg/kg po, control 18.9 ± 0.66 (Ex. 12), 17.0 ± 0.67 (Ex. 17)): 14.0 ± 0.97 g |
| COC(=O)c1ccc(CC(C)NCC(O)c2ccc(O)c(CO)c2)cc1OC (centres unmarked) [Example 10, N-[2-(4-Carbomethoxy-3-methoxyphenyl)-1-methylethyl]-2-hydroxy-2-(4-hydroxy-3-hydroxymethylphenyl)ethanamine] | particularly worthy of mention in view of their anti-obesity activity | – | – | – |
| CC(Cc1ccc(C(=O)O)cc1)NCC(O)c1ccccc1 (centres unmarked) [Example 44, N-[2-(4-Carboxyphenyl)-1-methylethyl]-2-hydroxy-2-phenylethanamine] | particularly worthy of mention in view of their anti-obesity activity | – | – | – |
| COC(=O)c1ccc(CCNCC(O)c2ccccc2Cl)cc1 (centres unmarked) [Example 27, N-(2-[4-Carbomethoxyphenyl]ethyl)-2-(2-chlorophyenyl)-2-hydroxyethanamine] | – | 38 | – | – |
| COC(=O)c1ccc(CC(C)NCC(O)c2ccc(O)c(NS(C)(=O)=O)c2)cc1 (centres unmarked) [Example 37, N-(2-[4-Carbomethoxyphenyl]-1-methylethyl)-2-(4-hydroxy-3-methanesulphonamidophenyl)-2-hydroxyethanamine] | particularly worthy of mention in view of their anti-obesity activity | – | – | – |
| COC(=O)c1ccc(CC(C)NCC(O)c2ccccc2)c(OC)c1 (centres unmarked) [Example 24, N-(2-[4-Carbomethoxy-2-methoxyphenyl]-1-methylethyl)-2hydroxy-2-phenylethanamine] | particularly worthy of mention in view of their anti-obesity activity | – | – | – |
| COC(=O)c1ccc(CC(C)NCC(O)c2ccccc2)cc1 (centres unmarked) [Example 22, N-(2-[4-Carbomethoxyphenyl]-1-methylethyl)-2-hydroxy-2-phenylethanamine] | particularly worthy of mention in view of their anti-obesity activity | 172 | particularly worthy of mention in view of their anti-hyperglycaemic activity | g - lipid per mouse, Treated [1, 3]: 13.9 ± 0.65 g |
| COC(=O)c1ccc(CC(C)NCC(O)c2cc(Cl)c(N)c(Cl)c2)cc1 (centres unmarked) [Example 30, N-(2-[4-Carbomethoxyphenyl]-1-methylethyl)-2-(4-amino-3,5-dichlorophenyl)-2-hydroxyethanamine] | particularly worthy of mention in view of their anti-obesity activity | 141 | particularly worthy of mention in view of their anti-hyperglycaemic activity | g - lipid per mouse, Treated ([1]; 22 mg/kg po, control 19.1 ± 0.47): 14.0 ± 0.57 g |
| COC(=O)c1ccc(C[C@H](C)NCC(O)c2ccc(O)c(CO)c2)cc1 (stereo partly drawn) [Example 36, N-(1-(S)-2-[4-Carbomethoxyphenyl]-1-methylethyl)-2-hydroxy-2-(4-hydroxy-3-hydroxymethylphenyl)ethanamine] | – | 79 | particularly worthy of mention in view of their anti-hyperglycaemic activity | – |
| COC(=O)c1ccc(CC(C)NCC(O)c2ccccc2)c(Cl)c1 (centres unmarked) [Example 23, N-(2-[4-Carbomethoxy-2-chlorophenyl]-1-methylethyl)-2-hydroxy-2-phenylethanamine] | particularly worthy of mention in view of their anti-obesity activity | – | – | – |
| COC(=O)c1ccc(CC(C)NCC(O)c2ccc(O)c(O)c2)cc1 (centres unmarked) [Example 19, N-(2-[4-Carbomethoxyphenyl]-1-methylethyl)-2-(3,4-dihydroxyphenyl)-2-hydroxyethanamine] | – | – | particularly worthy of mention in view of their anti-hyperglycaemic activity | – |
